Laboratory results: patent US20090318351A1, “METHOD OF TREATING ACUTE ST-ELEVATION MYOCARDIAL INFARCTION WITH A DELTA PKC ANTAGONIST” (priority 2008, published 2009)

What was measured:
[1] = system: patients with acute anterior STEMI; experiment: DELTA MI trial: intracoronary KAI-9803 during primary PCI for acute anterior STEMI
Protocol: Safety and biomarker end points were assessed.
The following example is a clinical treatment of acute ST-elevation myocardial infarction (STEMI) using the compositions and methods provided in the invention.
Patients were recommended to receive aspirin (162-325 mg orally), a thienopyridine loading dose (clopidogrel 300-600 mg or ticlopidine 500 mg), unfractionated heparin, and glycoprotein IIb-IIIa inhibitors during PCI. […] After verifying the final angiographic inclusion criteria during diagnostic angiography, randomization and study drug preparation occurred in the catheterization laboratory before the beginning of the PCI procedure.
Study drug was reconstituted into a clear solution at 1 of 4 concentrations using serial dilutions with 0.9% sodium chloride solution. Study drug was administered during PCI in the following sequence. First, the guidewire was passed across the obstruction in the left anterior descending (LAD) infarct vessel and an over-the-wire balloon catheter was positioned at the level of the obstruction. Second, the guidewire was removed, and dilute contrast was injected to confirm positioning of the catheter tip downstream from the obstruction and to assess patency of the distal vessel. The contrast injection was followed by a saline flush, and the guidewire was reinserted. Third, the balloon was inflated, and, after removing the guidewire, 2 mL of blinded study drug were hand injected slowly into the distal vascular bed over at least 1 minute. Fourth, the guidewire was readvanced through the catheter into the distal vessel, and the balloon was deflated. Finally, after antegrade epicardial coronary flow was re-established following initial balloon inflations, 3 mL of blinded study drug were injected through the guide catheter positioned at the ostium of the left main coronary artery. The PCI procedure was then completed according to standard technique.
After initial informed consent was obtained and before diagnostic angiography was performed, a continuous digital 12-lead ECG monitor (NEMON 180+, Northeast Monitoring, Natick, Mass.) was applied and baseline serum samples were obtained for analyses of cardiac markers including creatine kinase (CK and CK-MB), troponin T, and N-terminal pro-brain natriuretic peptide (BNP).
After completion of the PCI procedure, angiography was performed a minimum of 10 minutes after the final balloon inflation and a minimum of 30 minutes after antegrade epicardial flow was re-established to measure TIMI (Thrombolysis in Myocardial Infarction) flow grade, corrected TIMI frame count, and TIMI myocardial perfusion grade (TMPG). TMPG was assessed approximately 30 minutes after administration of study drug and prior to intracoronary administration of adenosine. Coronary flow reserve was determined by measuring corrected TIMI frame count before and after administration of 18-24 mcg of intracoronary adenosine. A left ventriculogram was performed to assess ejection fraction.
The continuous ECG monitor was removed after 24 hours of data collection. Continuous ST-segment recovery analysis was performed in a blinded core laboratory. End points assessed from measurement of continuous 12-lead ECGs included time to stable ST recovery, % ST-segment resolution at serial static time points, and ST recovery time-trend curve area defined by summated ST-segment resolution and re-elevation integrated over the first 3 hours following PCI.
Blood collection for CK-MB levels was performed at 3-6 hours, 6-12 hours, 18-24 hours, and 36 hours after randomization.

[2] = Effect of D-peptides on plasma stability of KAI-9706
Protocol: KAI-9706 was engineered with D-amino acids to determine their impact on peptide composition stability. Unmodified KAI-9706 was compared to a peptide composition with the same amino acid sequence, however the amino acids used were d-enantiomers instead of 1-amino acids. A retro-inverso version and a scrambled version of the peptide composition were also prepared.

For `CC(C)C[C@H](NC(=O)[C@H](CO)NC(=O)CNC(=O)[C@H](CC(C)C)NC(=O)[C@H](CCC(=O)O)NC(=O)[C@H](Cc1ccc(O)cc1)NC(=O)[C@H](CO)NC(=O)[C@H](CC(N)=O)NC(=O)[C@H](Cc1ccccc1)NC(=O)[C@H](CO)NC(=O)[C@@H](N)CSSC[C@H](N)C(=O)N[C@@H](Cc1ccc(O)cc1)C(=O)NCC(=O)N[C@@H](CCCNC(=N)N)C(=O)N[C@@H](CCCCN)C(=O)N[C@@H](CCCCN)C(=O)N[C@@H](CCCNC(=N)N)C(=O)N[C@@H](CCCNC(=N)N)C(=O)N[C@@H](CCC(N)=O)C(=O)N[C@@H](CCCNC(=N)N)C(=O)N[C@@H](CCCNC(=N)N)C(=O)N[C@@H](CCCNC(=N)N)C(=O)O)C(=O)O` [KAI-9803], the “investigator-reported CHF events” value ([1]; active study drug group, through 6 months, number of events) was 21, the “incidence of serious adverse events versus placebo” value ([1]; all cohorts) was “similar” and the “changes in clinical laboratory values from baseline through 48 hours versus placebo” value ([1]; blood counts, electrolytes, BUN, creatinine, liver function tests) was “no differences”. For the same compound, the “incidence of serious adverse events through 30 days” value ([1]; cohort 1 (0.05 mg)) was 30.4%, the “incidence of serious adverse events through 30 days” value ([1]; cohort 2 (0.5 mg)) was 16.0% and the “incidence of serious adverse events through 30 days” value ([1]; cohort 3 (1.25 mg)) was 19.2%. The “incidence of serious adverse events through 30 days” value ([1]; cohort 4 (5.0 mg)) was 35.7% and the “median maximum change in the QT interval from baseline until after the second dose” value ([1]; pooled active study drug) was 16.9 ms.
`CC[C@@H](C)[C@@H](NC(=O)[C@H]1CCCN1C(=O)[C@@H](C)NC(=O)[C@@H](CC(=O)O)NC(=O)[C@@H](Cc1c[nH]cn1)NC(=O)[C@H](N)CSSC[C@H](N)C(=O)N[C@@H](Cc1ccc(O)cc1)C(=O)NCC(=O)N[C@@H](CCCNC(=N)N)C(=O)N[C@@H](CCCCN)C(=O)N[C@@H](CCCCN)C(=O)N[C@@H](CCCNC(=N)N)C(=O)N[C@@H](CCCNC(=N)N)C(=O)N[C@@H](CCC(N)=O)C(=O)N[C@@H](CCCNC(=N)N)C(=O)N[C@@H](CCCNC(=N)N)C(=O)N[C@@H](CCCNC(=N)N)C(=O)O)C(=O)NCC(=O)N[C@H](Cc1ccc(O)cc1)C(=O)N[C@H](CC(=O)O)C(=O)O` [KAI-9706 carrier All-L cargo All-D] showed a remaining at 0.25 h [2] of 0%.
`CC[C@@H](C)[C@@H](NC(=O)[C@H]1CCCN1C(=O)[C@@H](C)NC(=O)[C@@H](CC(=O)O)NC(=O)[C@@H](Cc1c[nH]cn1)NC(=O)[C@H](N)CSSC[C@@H](N)C(=O)N[C@H](Cc1ccc(O)cc1)C(=O)NCC(=O)N[C@H](CCCNC(=N)N)C(=O)N[C@H](CCCCN)C(=O)N[C@H](CCCCN)C(=O)N[C@H](CCCNC(=N)N)C(=O)N[C@H](CCCNC(=N)N)C(=O)N[C@H](CCC(N)=O)C(=O)N[C@H](CCCNC(=N)N)C(=O)N[C@H](CCCNC(=N)N)C(=O)N[C@H](CCCNC(=N)N)C(=O)O)C(=O)NCC(=O)N[C@H](Cc1ccc(O)cc1)C(=O)N[C@H](CC(=O)O)C(=O)O` [KAI-9706 carrier All-D cargo All-D] showed a remaining at 0.25 h [2] of 100%.
In the case of `CC[C@H](C)[C@H](NC(=O)[C@@H]1CCCN1C(=O)[C@H](C)NC(=O)[C@H](CC(=O)O)NC(=O)[C@H](Cc1c[nH]cn1)NC(=O)[C@@H](N)CSSC[C@@H](N)C(=O)N[C@H](Cc1ccc(O)cc1)C(=O)NCC(=O)N[C@H](CCCNC(=N)N)C(=O)N[C@H](CCCCN)C(=O)N[C@H](CCCCN)C(=O)N[C@H](CCCNC(=N)N)C(=O)N[C@H](CCCNC(=N)N)C(=O)N[C@H](CCC(N)=O)C(=O)N[C@H](CCCNC(=N)N)C(=O)N[C@H](CCCNC(=N)N)C(=O)N[C@H](CCCNC(=N)N)C(=O)O)C(=O)NCC(=O)N[C@@H](Cc1ccc(O)cc1)C(=O)N[C@@H](CC(=O)O)C(=O)O` [KAI-9706 carrier All-D cargo All-L], the remaining at 0.25 h [2] is reported as 88%.
